Measurements: patent US20180017584A1, “ADDITIVE CHANNELS” (Emulate Inc., priority 2016, published 2018)
Positions of bridges follow the written chain, without caps; N, C: chain ends. Non-standard residues stand in square brackets, D forms with d. Residues, ends and D or L forms follow the SMILES beside them. hArg = N=C(N)NCCCC[C@H](N)C(=O)O; Mpa = O=C(O)CCS

Experiments:
p-selectin on platelets = assay: Quality control of platelet activation by p-selectin expression; type: cell-based, human; conditions: control blood upon activation by ADP
Protocol: (§1) To test for a thrombic event, blood was collected from 4 donors, the as blood alone or blood treated with hu5C8 alone (240 μg/mL), sCD40L (10 ng/ml) alone or with combined hu5C8/sCD40L was incubated for 20 minutes at room temperature. Each sample was further incubated for 5 minutes with fluorescent labels for platelets and fibrinogen. As a standard quality control, the control blood was tested for platelet activation using p-selection expression. We confirmed that platelets in control blood were not activated but upon activation by ADP, over 90% of platelet was positive for p-selectin.

[1] = test system: platelets in human whole blood perfused over HUVEC endothelium; assay: Vessel-On-Chip blood perfusion, platelet coverage / aggregation by fluorescence imaging (CD41 label); type: cell-based; conditions: for platelet coverage / platelet aggregate formation on the endothelium: vs blood alone, TNF-α 50 ng/ml 6 h, sCollagen 10 μg/ml, hu5C8 240 μg/ml + sCD40L 10 ng/ml
Protocol: (§2) Experiments with Blood: Blood Samples And Endothelium: Citrated human blood (Research Blood Components, Cambridge, Mass.) was used within 4 hours of a blood draw in order to minimize pre-analytical effects on platelet function. Before every experiment, each one of the endothelialized channels (i.e. microchannels having an endothelial cell layer) was inspected via light microscopy, Samples showing any sign of discontinuity in the endothelium were discarded.
(§3) Blood Pre-treatment and Perfusion: Formation of IC (preformed IC): Hu5C8, IgG2σ (control) (both provided by Janssen or provided as described herein) For studies with preformed IC, Hu5C8 or IgG2σ as an isotype control were combined with sCD40L (Tonbo Biosciences, San Diego, Calif.) in PBS, in a ratio of I molecule of sCD40L to 3000 molecules of antibody. After 20 minutes incubation at room temperature, the solution was diluted in a blood sample to reach the final concentration of 240 μg/ml (Hu5C8) and 10 ng/ml (sCD40L).
Platelets: Platelets were labeled with human CD41-PE antibody (10 μL/ml. Invitrogen) directly added to the blood and incubated at room temperature for 5 minutes.
Anticoagulant Drug: As an exemplary standard antiplatelet (anticoagulant) drug, Eptifibatide was used as described herein. Eptifibatide has a well-known mechanism of action, such that a bolus of 180 mcg/Kg is frequently used to treat human patients.^54 We estimated that a concentration of 2.4 μM (about 2 μg/ml) is a clinical relevant concentration. As described herein for experiments including Eptifibatide, 2 μg/ml of Eptifibatide were incubated with blood samples for 15 minutes at room temperature before adding sCollagen or before flowing through TNF-inflamed biomimetic vessel.
(§4) Adding Blood to a Vessel-On-Chip And Flow Conditions: A medical grade plastic reservoir was mounted on the chip, then 800 μl of the blood sample was pipetted into the reservoir. The chip was perfused with the blood by withdrawing it at a rate of 60 μl/minute using a syringe pump. The citrated blood was re-calcified 2 minutes after the beginning of each experiment by adding 100 μl/ml of a solution containing 100 mM calcium chloride and 75 mM magnesium chloride to the blood to permit calcium- and magnesium-dependent platelet function and coagulation.
(§5) Staining of Endothelial Cells: Samples were washed twice in cell culture medium and then fixed in acetone/methanol 1:1 at −20° C., for 10 minutes. Each sample was then washed three times in PBS and incubated in blocking solution consisting of PBS and 10% normal donkey serum (Abcam) for one hour. After blocking, samples were washed in PBS twice and then incubated with anti VE-Cadherin monoclonal antibody (Abeam) diluted 1:100 in blocking solution at 4° C. overnight. […] Fluorescence Image analysis: Chips perfused with blood samples were immediately imaged via fluorescence microscopy (Olympus 1X83, 10× objective UPLFLN10X2, Circa-Flash4.0 CMOS Camera). […] Image processing and quantification was performed with an automatic macro compiled in […] and numerical values corresponding to platelet coverage or fibrin florescence were collected and statistically analyzed in Graphpad Prism V7.
Platelet Coverage: A percentage of signal coverage (or Platelet coverage) was computed from the binary image as the ratio of bright pixels to the total number of pixels in the image, Image processing and quantification was performed with an automatic macro compiled in ImageJ in order to ensure unbiased signal measurements. […]

[2] = test system: fibrin deposition from human whole blood on HUVEC endothelium; assay: Vessel-On-Chip blood perfusion, fibrin deposition by fluorescent fibrinogen imaging; type: cell-based; conditions: for fibrin deposition / fibrin signal intensity on the endothelium: vs blood alone, TNF-α 50 ng/ml 6 h, sCollagen 10 μg/ml, hu5C8 240 μg/ml + sCD40L 10 ng/ml
Protocol: as §2, §4
Visualizing Fibrin Deposition: When analyzing the formation of fibrin, 10 μg/ml of fluorescently labeled fibrinogen (Alexa 488, Invitrogen) was also added to the blood. While fluorescent fibrinogen was barely detected as a diffused fluorescence, fibrin deposition on inflamed cells and sparse clots was easily distinguished since fibrin formed filamentous structures produce a signal intensity that is clearly observed above a background threshold.
as §5, with “hour.” for “hour. After blocking, samples were washed in PBS twice and then incubated with anti VE-Cadherin monoclonal antibody (Abeam) diluted 1:100 in blocking solution at 4° C. overnight.”
Platelet Coverage: A percentage of signal coverage (or Platelet coverage) was computed from the binary image as the ratio of bright pixels to the total number of pixels in the image, Image processing and quantification was performed with an automatic macro compiled in ImageJ in order to ensure unbiased signal measurements. Numerical values corresponding to platelet coverage or fibrin fluorescence (signal intensity) were collected and statistically analyzed in Graphpad Prism V7.

[3] = test system: thrombin anti-thrombin complex (TAT); assay: Thrombin-Anti Thrombin (TAT) measurement via ELISA in chip effluent; type: cell-based, human; conditions: for levels of TAT in outflow: vs blood alone, TNF-α 50 ng/ml 6 h endothelial pre-treatment, sCollagen in blood, hu5C8 240 μg/ml + sCD40L 10 ng/ml
Protocol: Thrombin-Anti Thrombin (TAT) measurement via ELISA: Thrombin Anti-Thrombin (TAT) levels were analyzed in plasma from blood flowing out of the chip device by removing a sample from the outflow port. Thus TAT levels were evaluated in sample effluents collected from the outflow port of the chip using the Human TAT ELISA Kit (Siemens Healthineers) according to the user manual.
Blood sampled from the Vessel-On-Chip outflow port was analyzed for thrombin anti-thrombin complex (TAT), a factor released upon activation of the coagulation cascade and one of the biomarkers associated with thrombotic events occurring in patients affected with deep vein thrombosis (DVT) or SLE^45,46. TAT is an accepted clinical biomarker for procoagulation^48,49. An enzyme-linked immunosorbent assay (ELISA) was used to quantify the thrombin anti-thrombin complex (TAT).

ICAM1 = ICAM1 immunostaining of endothelium on chip; type: cell-based, human; conditions: TNF-α stimulated endothelium
Protocol: ICAM1 is shown with examples identified by white arrows. One example of a DAPI stained nuclei is shown inside of a white circle.
TNF-alpha Stimulation: In some experiment endothelial cells were stimulate with 50 ng/ml of TNF (Sigma) for 6 hours in order to induce vascular inflammation before blood perfusion.

lupus nephritis patients = conditions: lupus nephritis clinical study; cited from earlier work
[4] = test system: human whole blood perfused over HUVEC endothelium; assay: Thrombosis on-chip, combined endpoints (platelet coverage, fibrin deposition, TAT); type: cell-based; conditions: hu5C8 alone 240 μg/mL; sCD40L alone 10 ng/ml; 4 donors; 60 μl/minute
Protocol: as §3, §1
Re-calcified blood samples were then perfused through the biomimetic vessel with untreated endothelium at a flow rate of 60 ul/minute for about 10 minutes while sodium citrate was re-introduced through the anticoagulant port. […]

[5] = Eptifibatide 2 ug/ml, endothelium inflamed with TNF-α, n=4

Compound: Nc1ncnc2c1ncn2[C@@H]1O[C@H](COP(=O)(O)OP(=O)(O)O)[C@@H](O)[C@H]1O [ADP]
- platelets positive for p-selectin (p-selectin on platelets): over 90%

Compound: N=C(N)NCCCC[C@@H]1NC(=O)CCSSC[C@@H](C(N)=O)NC(=O)[C@@H]2CCCN2C(=O)[C@H](Cc2c[nH]c3ccccc23)NC(=O)[C@H](CC(=O)O)NC(=O)CNC1=O [Eptifibatide] ([Mpa][hArg]GDWPC-NH2; disulfide 1-7)
- inhibition of platelet aggregation [1, 5]: significantly inhibited
- inhibitory effect on platelet aggregation and fibrin clot formation ([1]; Eptifibatide 2 ug/ml, following treatment with sCollagen, n=4): comparatively modest
- platelet adhesion (image analysis of multiple experiments) ([1]; Eptifibatide 2 ug/ml, n=4): completely inhibited
- inhibition of fibrin clot formation [2, 5]: significantly inhibited
- fibrin signal remaining under Eptifibatide ([2]; Eptifibatide 2 ug/ml, samples treated with TNF-α): significant amount of fibrin signal was still detectable
- effect on TAT increment associated with TNF-α-induced inflammation ([3]; Eptifibatide 2 ug/ml, TNF-α pre-treated endothelium): did not inhibit
- effect on TAT increment due to sCollagen treatment ([3]; Eptifibatide 2 ug/ml, sCollagen-treated blood): entirely suppressed

Compound: TNF-α
- platelet coverage / platelet aggregate formation on the endothelium [1]: increased
- fibrin deposition / fibrin signal intensity on the endothelium [2]: increased
- levels of TAT in outflow [3]: significantly increased
- expression of ICAM1 in the endothelium compared to the control (ICAM1): increased expression

Compound: hu5C8: humanized monoclonal IgG1 antibody against CD40L (anti-CD154)
- incidence of thromboembolitic events (lupus nephritis patients): 2/18
- treatment-related effects compared to untreated blood [4]: no significant treatment-related effects

Compound: sCollagen: soluble collagen (Soluble Calf Skin, Type I), a standard platelet activator
- platelet coverage / platelet aggregate formation on the endothelium [1]: increased
- fibrin deposition / fibrin signal intensity on the endothelium [2]: increased
- levels of TAT in outflow [3]: minimally increased
